Patent US9403874B2, “Peptides and use thereof” (IL YANG PHARM. CO.,LTD., priority 2012, dated 2016)

Key:
IL-34 = assay: Reduction of IL-34 secretion in activated B cells (ELISA); type: cell-based; conditions: 100 ng/me of peptide; EBV-infected B cells stimulated with anti-CD150; ELISA of culture supernatant
Procedure: (§1) In order to determine the activity of the novel peptides synthesized in Example 1 for reducing the secretion of inflammatory cytokines, the activated pathogenic B cells were treated with each of the 18 types of synthesized novel peptides and the reduction in secretion of inflammatory cytokines from the B cells was monitored.
(§2) Specifically, in order to determine whether the novel peptides could weaken the pathogenic B cells which are involved in the development of disease symptoms, the in vitro B cells model which is similar to the joint infiltrative B cells of rheumatoid arthritis was used. The activated pathogenic B cell was generated by stimulating Ebstein Barr virus (EBV)-infected B cells with anti-CD150 antibodies, and the cells were treated with […] of each of the 18 types of novel peptide.
(§3) In order to confirm the effect of 18 types of novel peptides in reducing inflammatory cytokines, the secretion amount of various cytokines (IL-1A, IL-1B, IL-2, IL-4, IL-5, IL-6, IL-8, IL-10, IL-12A, IL-13, IL-17A, GM-CSF, IL-34) secreted from the activated B cells was measured. The supernatants of B cell culture were analyzed enzyme-linked immunosorbent assay (ELISA), and the difference in absorbance (450 nm-570 nm) of the color developing reagent was measured as test results. Based on the measured difference in absorbance (450 nm-570 nm) of the color developing reagent, the absorbance of cytokines secreted when treated with the 18 types of novel […] was calculated in percentage, while setting the absorbance corresponding to the cytokines secreted from the activated B cells stimulated by anti-CD150 as 100%.

IL-17A = assay: Reduction of IL-17A secretion in activated B cells (ELISA); type: cell-based; conditions: 100 ng/me of peptide; EBV-infected B cells stimulated with anti-CD150; ELISA of culture supernatant
Procedure: as §1, §2, §3

GM-CSF = assay: Reduction of GM-CSF secretion in activated B cells (ELISA); type: cell-based; conditions: 100 ng/me of peptide; EBV-infected B cells stimulated with anti-CD150; ELISA of culture supernatant
Procedure: as §1, §2, §3

IL-6 = assay: Reduction of IL-6 secretion in activated B cells (ELISA); type: cell-based; conditions: 100 ng/me of peptide; EBV-infected B cells stimulated with anti-CD150; ELISA of culture supernatant
Procedure: as §1, §2, §3

IL-8 = assay: Reduction of IL-8 secretion in activated B cells (ELISA); type: cell-based; conditions: 100 ng/me of peptide; EBV-infected B cells stimulated with anti-CD150; ELISA of culture supernatant
Procedure: as §1, §2, §3

[1] = test system: collagen-induced arthritis mouse model; assay: Collagen-induced arthritis mouse model; type: in vivo
Procedure: In order to investigate the therapeutic effect of the peptide SIS-1, which is a representative peptide of the 18 types of novel peptides prepared in Example 1 against a representative autoimmune disease, arthritis, the experiment was performed using the collagen-induced arthritis mouse model of the literature (Nature, 283, pp 666-668, 1980; Arthritis Rheum, 46, pp 793-801, 2002).
The collagen-induced arthritis (CIA) is the model with arthritis of autoimmune disease type having similar characteristics as human rheumatoid arthritis and it was prepared by the following method.
The 100 μg of bovine type II collagen (Chondrex four, United States) was emulsified by mixing it with Freund's complete adjuvant (Chondrex, USA), and 7-week-old DBA/1 mouse ([…], male, central laboratory animals, Korea) was immunized by injecting the emulsified collagen solution intradermally at the tail region. On the 14th day of the first immunization, 50 μg of bovine type II collagen (Chondrex four, United States) was emulsified by mixing it with Freund's complete adjuvant (Chondrex, USA), and the second immune (boosting) response was induced by injecting the same intradermally at the tail region.
The novel peptide SIS-1 and a control drug, dexamethasone (DEX), were intraperitoneally administered three times a week from the next day of inducing the second immune response, and the control group (CIA) was treated with PBS.
In order to monitor the development of arthritis, the thickness of foot was measured using loop handle thickness gauge (Mitutoyo) while observing the weight change and the level of pathogenesis. In addition, the severity of the joint inflammation was assessed three times a week by two observers without knowing the contents of the experiment. Assessment of arthritis was performed by adding the scores for four legs per one mouse according to the following criteria, based on the arthritis progression index by Rossoliniec, et al. and then by taking the average of the values measured by two observers. The score and criteria for assessing arthritis are as follows:
0 point: no edema or swelling
1 point: mild edema and redness confined to foot or ankle joint
2 points: mild edema and redness in ankle joint through metatarsal
3 points: moderate edema and redness in ankle joint through metatarsal
4 points: edema and redness through the whole leg, and appearance of acampsia
The maximum arthritis index is 4 points per leg, and the maximum disease index per mouse is 16.
In order to determine the damage in the cartilage of joints, the histological examination was performed after completion of the test. On the 9th week of the animal model test, after the test animal was killed, the hind leg of the mouse hind was fixed with 10% formalin and coated with paraffin after removing compounds of calcium from the bones. Joint section was prepared and stained with hematoxylin and eosin.

IL-12A = assay: Reduction of IL-12A secretion in activated B cells (ELISA); type: cell-based; conditions: 100 ng/me of peptide; EBV-infected B cells stimulated with anti-CD150; ELISA of culture supernatant
Procedure: as §1, §2, §3

IL-1A = assay: Reduction of IL-1A secretion in activated B cells (ELISA); type: cell-based; conditions: 100 ng/me of peptide; EBV-infected B cells stimulated with anti-CD150; ELISA of culture supernatant
Procedure: as §1, §2, §3

IL-13 = assay: Reduction of IL-13 secretion in activated B cells (ELISA); type: cell-based; conditions: 100 ng/me of peptide; EBV-infected B cells stimulated with anti-CD150; ELISA of culture supernatant
Procedure: as §1, §2, §3

IL-1B = assay: Reduction of IL-1B secretion in activated B cells (ELISA); type: cell-based; conditions: 100 ng/me of peptide; EBV-infected B cells stimulated with anti-CD150; ELISA of culture supernatant
Procedure: as §1, §2, §3

IL-2 = assay: Reduction of IL-2 secretion in activated B cells (ELISA); type: cell-based; conditions: 100 ng/me of peptide; EBV-infected B cells stimulated with anti-CD150; ELISA of culture supernatant
Procedure: as §1, §2, §3

IL-10 = assay: Reduction of IL-10 secretion in activated B cells (ELISA); type: cell-based; conditions: 100 ng/me of peptide; EBV-infected B cells stimulated with anti-CD150; ELISA of culture supernatant
Procedure: as §1, §2, §3

IL-5 = assay: Reduction of IL-5 secretion in activated B cells (ELISA); type: cell-based; conditions: 100 ng/me of peptide; EBV-infected B cells stimulated with anti-CD150; ELISA of culture supernatant
Procedure: as §1, §2, §3

[2] = test system: TPA-induced ear edema mouse model; assay: TPA-induced ear edema mouse model; type: in vivo; conditions: 6 hours after TPA application, intraperitoneal, twice
From the text: The present inventors confirmed that the peptides of the present invention are effective in alleviating inflammation invivo, along with reduction of the secretion of inflammatory cytokines as confirmed in Example 2. To be specific, in order to identify the anti-inflammatory effect of the peptide SIS-1, which is a representative peptide of 18 types of novel peptides prepared in Example 1, the present inventors used the method for evaluating the mouse ear edema wherein 12-O-tetradecanoylphorbol-13-acetate (TPA) induces acute inflammation as described in the literature (Eur J Pharmacol. 2011: 15; 672(1-3):175-179).
The TPA-induced ear edema mouse model is an animal model where erythema and edema caused by acute inflammation can be observed and it was prepared by the following method. The 24 mice of 5-week-old ICR mouse ([…], mal, central laboratory animals, Korea) were divided into 6 mice per group, and their hairs of both ears were removed before applying the sample. […]
The anti-inflammatory effect of the peptide SIS-1 was determined by observing the degree of edema inhibition as compared to the control group injected with vehicle. After 6 hours of TPA application, pictures of both ears were taken to determine the degree of ear edema, and the degree of inflammation alleviated was determined by measuring the thickness and weight per certain area of ear.

IL-4 = assay: Reduction of IL-4 secretion in activated B cells (ELISA); type: cell-based; conditions: 100 ng/me of peptide; EBV-infected B cells stimulated with anti-CD150; ELISA of culture supernatant
Procedure: as §1, §2, §3

[3] = test system: antibodies specific to bovine type II collagen; assay: Serological analysis in collagen-induced arthritis mice (ELISA); type: in vivo, mouse; conditions: serum of CIA mice
Procedure: In order to determine the therapeutic effect of the novel peptide SIS-1 for arthritis, enzyme-linked immunosorbent assay (ELISA) was performed to measure the antibodies specific to bovine type II collagen with the serological test. As mentioned in the literature, IgG antibody, known as the rheumatoid factor (RF), or subtype of IgG (IgG1 and IgG2a) and IgM autoantibody are known to form immune complexes, cause inflammation, and develop the lesions of rheumatoid arthritis (Journal of Ethnopharmacology 112 (2007) 408).
After diluting the serum of each test group in a ratio of 1:25000 (IgG) or 1:10000 (IgG1, IgG2a, IgM), the titer of serum autoantibody specific to type II collagen was measured.

What does the source list for MSLPSPRDGRTDGRTDCTR (SIS-1 peptide)?
Inhibition rate of each cytokine compared to CD150-stimulated EBV-t B cells (%) IL-34 (IL-34): 43.4%; Inhibition rate of each cytokine compared to CD150-stimulated EBV-t B cells (%) IL-17A (IL-17A): 63.6%; Inhibition rate of each cytokine compared to CD150-stimulated EBV-t B cells (%) GM-CSF (GM-CSF): 60.5%; Inhibition rate of each cytokine compared to CD150-stimulated EBV-t B cells (%) IL-6 (IL-6): 42.9%; Inhibition rate of each cytokine compared to CD150-stimulated EBV-t B cells (%) IL-8 (IL-8): 53.8%; onset of disease symptom ([1]; after second immunization, versus CIA group): delayed; mouse weight ([1]; after second immunization, intraperitoneal three times a week): maintained similar to that of Normal group; incidence of arthritis ([1]; by the end of the test, intraperitoneal three times a week): 87.5%; arthritis progression index ([1]; compared to the CIA group): reduced; swelling of ankle joints ([1]; compared to the CIA group): reduced; destruction of joints and cartilage (histology, hematoxylin and eosin) ([1]; hind leg joint sections, 9th week): maintained at similar level as the normal mice; Inhibition rate of each cytokine compared to CD150-stimulated EBV-t B cells (%) IL-12A (IL-12A): 43.5%; Inhibition rate of each cytokine compared to CD150-stimulated EBV-t B cells (%) IL-1A (IL-1A): 22.7%; Inhibition rate of each cytokine compared to CD150-stimulated EBV-t B cells (%) IL-13 (IL-13): 37.6%; Inhibition rate of each cytokine compared to CD150-stimulated EBV-t B cells (%) IL-1B (IL-1B): 25.4%; Inhibition rate of each cytokine compared to CD150-stimulated EBV-t B cells (%) IL-2 (IL-2): 19.7%; Inhibition rate of each cytokine compared to CD150-stimulated EBV-t B cells (%) IL-10 (IL-10): 47.6%; Inhibition rate of each cytokine compared to CD150-stimulated EBV-t B cells (%) IL-5 (IL-5): 30.3%; erythema increased by TPA application [2]: reduced; inflammatory response (thickness and weight of ear increased by TPA edema) [2]: inhibited significantly; Inhibition rate of each cytokine compared to CD150-stimulated EBV-t B cells (%) IL-4 (IL-4): 59.9%; reduction of autoantibodies compared with control drug DEX [3]: as effective as or superior than
